Reference: ChEMBL document CHEMBL4418913, “Modulation of K2P channels” (2018)
Calls of active or inactive are those of the source. The calls are words filed in the database; no cut-off is given here.

Assays:
[1] = biological target: T1, Potassium channel subfamily K member 2 (Homo sapiens) (UniProt O95069); assay: Reversible modulatory activity at K2P2.1 (unknown origin) expressed in Xenopus oocytes assessed as effect on channel currents at 100 uM at -80 mV holding potential by two-electrode voltage clamp assay; format: cell-based
T1 sequence (whole entry): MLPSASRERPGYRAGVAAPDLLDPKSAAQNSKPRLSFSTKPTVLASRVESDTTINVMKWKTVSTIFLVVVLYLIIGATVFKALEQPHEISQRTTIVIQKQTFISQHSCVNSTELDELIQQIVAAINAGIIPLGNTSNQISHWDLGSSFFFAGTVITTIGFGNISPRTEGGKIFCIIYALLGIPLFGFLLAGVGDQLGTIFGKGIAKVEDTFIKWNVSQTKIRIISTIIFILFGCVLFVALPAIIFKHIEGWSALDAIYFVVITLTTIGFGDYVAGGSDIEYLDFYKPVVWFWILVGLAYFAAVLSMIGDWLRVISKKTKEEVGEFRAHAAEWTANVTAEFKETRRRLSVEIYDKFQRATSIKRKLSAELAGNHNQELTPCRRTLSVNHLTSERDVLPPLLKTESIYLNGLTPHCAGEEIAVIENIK

[2] = biological target: Potassium voltage-gated channel subfamily KQT member 2 (Homo sapiens) (UniProt O43526); assay: Activation of Kv7.2 (unknown origin) expressed in Xenopus oocytes assessed as effect on channel currents by two-electrode voltage clamp assay; format: cell-based
[3] = biological target: T1, Potassium channel subfamily K member 2 (Homo sapiens); assay: Activation of K2P2.1 (unknown origin) expressed in Xenopus oocytes assessed as effect on channel currents at 400 uM by two-electrode voltage clamp assay; format: cell-based
[4] = biological target: T1, Potassium channel subfamily K member 2 (Homo sapiens); assay: Activation of K2P2.1 (unknown origin) expressed in Xenopus oocytes assessed as effect on channel currents at -80 mV holding potential by two-electrode voltage clamp assay relative to untreated control; format: cell-based
[5] = biological target: T2, Potassium channel subfamily K member 4 (Homo sapiens) (UniProt Q9NYG8); assay: Binding affinity to K2P4.1 (unknown origin) assessed as induction of protein cross linking and labelling at 1 to 200 uM following 254 nm UV light irradiation for 30 secs by SDS-PAGE analysis
T2 sequence (whole entry): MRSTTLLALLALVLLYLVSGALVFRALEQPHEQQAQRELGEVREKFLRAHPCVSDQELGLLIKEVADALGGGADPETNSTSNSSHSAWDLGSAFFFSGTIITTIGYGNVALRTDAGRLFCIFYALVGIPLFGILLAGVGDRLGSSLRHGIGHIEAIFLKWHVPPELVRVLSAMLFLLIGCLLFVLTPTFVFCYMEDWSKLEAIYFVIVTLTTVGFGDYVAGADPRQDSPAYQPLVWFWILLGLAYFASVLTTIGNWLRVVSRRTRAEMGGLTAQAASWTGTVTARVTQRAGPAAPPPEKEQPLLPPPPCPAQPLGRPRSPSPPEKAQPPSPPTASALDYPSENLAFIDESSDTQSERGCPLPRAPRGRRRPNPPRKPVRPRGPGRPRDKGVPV

[6] = biological target: T1, Potassium channel subfamily K member 2 (Homo sapiens); assay: Inhibition of K2P2.1 (unknown origin) expressed in Xenopus oocytes assessed as effect on channel currents at 100 to 500 uM at 40 mV holding potential by two-electrode voltage clamp assay; format: cell-based
[7] = biological target: T1, Potassium channel subfamily K member 2 (Homo sapiens); assay: Reversible activation of K2P2.1 (unknown origin) expressed in HEK293T cells assessed as effect on channel currents at 10 uM at -80 mV holding potential by whole cell patch clamp assay relative to untreated control; format: cell-based
[8] = test system: Potassium channel subfamily K member 2 (Homo sapiens), O95069 [UNDEFINED MUTATION]; assay: Activation of K2P2.1 W275S mutant (unknown origin) expressed in Xenopus oocytes assessed as effect on channel currents at 50 uM by two-electrode voltage clamp assay; format: cell-based
Homo sapiens = species on record: Homo sapiens; assay: Activation of K2P2.1 triple Glycine mutant (unknown origin) expressed in Xenopus oocytes assessed as effect on channel currents at 50 uM by two-electrode voltage clamp assay; format: cell-based
[9] = test system: Potassium channel subfamily K member 2 (Homo sapiens), O95069 [UNDEFINED MUTATION]; assay: Activation of K2P2.1 G137I mutant (unknown origin) expressed in Xenopus oocytes assessed as effect on channel currents at 50 uM by two-electrode voltage clamp assay; format: cell-based
[10] = biological target: T1, Potassium channel subfamily K member 2 (Homo sapiens); assay: Activation of K2P2.1 (unknown origin) expressed in HEK293T cells inside out excised patches assessed as effect on channel currents at 20 uM at -40 mV holding potential by patch clamp assay relative to untreated control; format: cell-based
[11] = biological target: T1, Potassium channel subfamily K member 2 (Homo sapiens); assay: Reversible activation of K2P2.1 (unknown origin) expressed in HEK293T cells assessed as effect on channel currents at 5 to 20 uM by […] assay; format: cell-based
[12] = biological target: T1, Potassium channel subfamily K member 2 (Homo sapiens); assay: Activation of K2P2.1 (unknown origin) expressed in HEK293T cells outside out excised patches assessed as effect on channel currents at 20 uM at -40 mV holding potential by […] patch clamp assay relative to untreated control; format: cell-based
[13] = biological target: T1, Potassium channel subfamily K member 2 (Homo sapiens); assay: Activation of K2P2.1 (unknown origin) expressed in Xenopus oocytes assessed as effect on channel currents at 50 uM in presence of 90 mM [K+]o-induced extracellular C-type gate stabilization by two-electrode voltage clamp assay; format: cell-based
[14] = biological target: T1, Potassium channel subfamily K member 2 (Homo sapiens); assay: Reversible activation of K2P2.1 (unknown origin) expressed in Xenopus oocytes assessed as effect on channel currents at 50 uM at -80 mV holding potential by two-electrode voltage clamp assay; format: cell-based

Potassium voltage-gated channel subfamily KQT member 2 (Homo sapiens), sequence (O43526 whole entry): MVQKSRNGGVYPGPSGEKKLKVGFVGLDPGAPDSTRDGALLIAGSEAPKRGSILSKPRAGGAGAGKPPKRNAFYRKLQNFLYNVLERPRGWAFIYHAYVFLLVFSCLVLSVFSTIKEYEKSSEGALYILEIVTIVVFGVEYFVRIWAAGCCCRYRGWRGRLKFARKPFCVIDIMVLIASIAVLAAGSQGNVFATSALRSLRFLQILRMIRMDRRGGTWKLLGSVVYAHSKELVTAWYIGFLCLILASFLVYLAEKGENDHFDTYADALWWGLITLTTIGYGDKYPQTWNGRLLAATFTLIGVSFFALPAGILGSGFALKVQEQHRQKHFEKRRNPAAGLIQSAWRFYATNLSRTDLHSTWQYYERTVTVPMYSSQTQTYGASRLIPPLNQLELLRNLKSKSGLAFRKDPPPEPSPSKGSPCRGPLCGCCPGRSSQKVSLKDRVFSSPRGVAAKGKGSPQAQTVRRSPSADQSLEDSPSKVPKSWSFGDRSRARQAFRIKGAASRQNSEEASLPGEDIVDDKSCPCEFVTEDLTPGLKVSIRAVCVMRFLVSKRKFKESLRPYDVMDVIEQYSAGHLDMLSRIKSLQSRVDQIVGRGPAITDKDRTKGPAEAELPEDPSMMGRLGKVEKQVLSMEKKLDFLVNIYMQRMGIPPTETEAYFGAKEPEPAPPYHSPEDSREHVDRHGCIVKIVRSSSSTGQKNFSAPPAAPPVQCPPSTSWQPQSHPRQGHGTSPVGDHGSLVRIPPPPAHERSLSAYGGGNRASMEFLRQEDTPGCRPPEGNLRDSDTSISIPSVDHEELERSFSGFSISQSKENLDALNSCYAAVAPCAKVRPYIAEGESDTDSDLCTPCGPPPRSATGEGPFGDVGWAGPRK

Cc1cccc(-n2ncc3c(NCCc4ccccc4)ncnc32)c1
Activity [1]: Active

O=C(O)CCn1c2ccc(Cl)cc2c2cc(Cl)ccc21
Activity [2]: inactive | Activity [1]: Active | Activity [3]: Active | Emax [4]: 11

O=C(O)COc1ccc(C23CC4CC(CC(C4)C2)C3)cc1
Activity [3]: Active

C#Cc1ccc(S(=O)(=O)NC(=O)CCN2c3ccc(N=[N+]=[N-])cc3C3(CCCCC3)c3cc(N=[N+]=[N-])ccc32)cc1
Activity [5]: Active

Cc1sc(-n2cccc2)c(C(=O)NCc2ccc(Cl)cc2)c1C
inhibition [6]: Active

CC1(C)c2cc(Cl)ccc2N(CCc2nnn[nH]2)c2ccc(Cl)cc21
Activity [7]: Active | Activity [8]: inactive | Activity (Homo sapiens): inactive | Activity [9]: inactive | Activity [10]: Active | Activity [11]: Active | Activity [12]: Active | Activity [13]: inactive | Activity [14]: Active

O=C1S/C(=C/c2ccc(F)cc2)C(=O)N1CN1CCCCC1
Activity [3]: Active
